Experimental data: patent US8258116B2, “Combination therapy for the treatment of HCV infection” (Vertex Pharmaceuticals Incorporated, priority 2007, dated 2012)
Where two headings read alike, the source gives them in different places.

Legend:
[1] = system: HCV replicon Wild Type (mADE); assay: 2-Day HCV Replicon IC50 Assay, wild type replicon; format: cell-based; conditions: for IC50: Hepatitis C virus; for Fold Change: ratio of IC50 to Wild type IC50 for the same inhibitor
Method: (§1) Huh-7 cells were propagated in Dulbecco's modified Eagle's medium (DMEM, JRH Biosciences, Lenexa, Kans.) supplemented with 10% heat-inactivated FBS (fetal bovine serum), 2 mM L-glutamine, and nonessential amino acids (JRH). The cells were transfected with an in vitro transcribed HCV replicon RNA identical to replicon 1377neo/NS3-3′/wt as described by Lohmann et al. (1999). Stable cell clones were selected and maintained in the presence of 250 μg/mL G418 (Invitrogen, Carlsbad, Calif.). […] The HCV NS3 protease variant replicons were constructed in the background of the mADE wild-type replicon as described previously [Chao Lin et al., “In Vitro Resistance Studies of Hepatitis C Virus Serine Protease Inhibitors, VX-950 and BILN 2061: Structural Analysis Indicates Different Resistance Mechanisms,” Journal of Biological Chemistry, 279(17); pp. 17508-17514 (2004)]. The replicon cells were propagated in DMEM supplemented with 10% FBS, 2 mM L-glutamine, nonessential amino acids, and 250 μg/mL G418. The cells were split twice per week in fresh media upon reaching confluence. There are approximately 200-300 copies of HCV RNA per 24-2 replicon cell.
(§2) HCV replicon RNA from cells was measured using the Quantigene Discover XL kit (Panomics Inc., Fremont Calif.) as per the manufacturer's instructions. Briefly, compound-treated replicon cells were lysed and immobilized on to capture plates using HCV specific oligonucleotides (designed based on the 5′ UTR region of HCV 1b genome sequence AJ238799 in the GenBank database) over night and the relative amounts of captured RNA was measured using oligonucleotide probe sets as per the manufacturer's instructions.
(§3) On the day prior to the assay, 10,000 replicon cells were plated per well of a 96-well plate and allowed to attach and grow overnight in DMEM (Invitrogen, Carlsbad, Calif.) supplemented with 10% heat-inactivated FBS (JRH Biosciences, Lenexa, Kans.), 2 mM L-glutamine (Invitrogen), nonessential amino acids (Invitrogen) and 250 μg/ml G418 (Invitrogen). Next day, the medium was removed and antiviral agents that were serially diluted in DMEM containing 2% FBS and 0.5% DMSO (Sigma Chemical Co., St. Louis, Mo.) without G418, was added. The replicon cells were incubated with the antiviral agents for 48 h. HCV replicon RNA from cells was measured using the Quantigene Discover XL kit (Panomics Inc., Fremont Calif.) as per the manufacturer's instructions. Briefly, compound-treated replicon cells were lysed and immobilized onto capture plates using HCV specific oligonucleotides overnight and the relative amounts of captured RNA was measured using oligonucleotide probe sets as per the manufacturer's instructions. Unless indicated otherwise, each data point represents the average of three replicates. The IC50 is the concentration of the compound at which the HCV replicon RNA level in cells is reduced by 50% as compared to the untreated replicon cell controls. To monitor the effect of compounds on cell proliferation or cell viability, replicon cells were treated with serially diluted compounds for 48 h, after which cell viability was determined using a CellTiter Glo assay (Promega, Madison, Wis.). Each CC50 is derived from at least two replicates and is the concentration of the compound at which the number of viable cells is reduced by 50% as compared to untreated cell controls. The IC50 and CC50 was determined using 4-parameter curve fitting in the SoftMax Pro program (Molecular Devices, Sunnyvale, Calif.).
(§4) The sensitivity of NS3 protease variants to ribavirin and interferon was assessed in a 2-Day HCV Replicon IC50 Assay.

[2] = system: HCV replicon cells (wild-type clone 24-2, Huh-7); assay: 2-day Replicon assay with bDNA quantitation, checkerboard combination (Bliss independence / MacSynergy); format: cell-based; conditions: Hepatitis C virus, Huh-7, 48 h, polymerase inhibitor in the checkerboard experiment with VX-950, read-out: Polymerase Inhibitor IC50
Method: Huh-7 cells were propagated in Dulbecco's modified Eagle's medium (DMEM, JRH Biosciences, Lenexa, Kans.) supplemented with 10% heat-inactivated FBS (fetal bovine serum), 2 mM L-glutamine, and nonessential amino acids (JRH). The cells were transfected with an in vitro transcribed HCV replicon RNA identical to replicon 1377neo/NS3-3′/wt as described by Lohmann et al. (1999). Stable cell clones were selected and maintained in the presence of 250 μg/mL G418 (Invitrogen, Carlsbad, Calif.). One of the clones, 24-2, was used as the wild-type in the subsequent HCV replicon assays for combination studies. The HCV NS3 protease variant replicons were constructed in the background of the mADE wild-type replicon as described previously [Chao Lin et al., “In Vitro Resistance Studies of Hepatitis C Virus Serine Protease Inhibitors, VX-950 and BILN 2061: Structural Analysis Indicates Different Resistance Mechanisms,” Journal of Biological Chemistry, 279(17); pp. 17508-17514 (2004)]. The replicon cells were propagated in DMEM supplemented with 10% FBS, 2 mM L-glutamine, nonessential amino acids, and 250 μg/mL G418. The cells were split twice per week in fresh media upon reaching confluence. There are approximately 200-300 copies of HCV RNA per 24-2 replicon cell.
as §2, §3
The effects of drug-drug combinations were evaluated using the Bliss independence model [W. R. Greco et al., “The search for synergy: a critical review from a response surface perspective,” Pharmacol. Rev., 47, pp. 331-385 (1995)]. The experimental data were analyzed by using MacSynergy, a three-dimensional analytical method developed by Prichard and Shipman [M. N. Prichard and C. […]

[3] = system: HCV NS3 protease variant replicon A156T; assay: 2-Day HCV Replicon IC50 Assay, A156T; format: cell-based; conditions: for Fold Change: A156T, ratio of mutant IC50 to Wild type IC50 for the same inhibitor; for IC50: Hepatitis C virus, read-out: Avg. IC50 ± STDEV
Method: as §1, §2, §3, §4

[4] = system: HCV NS3 protease variant replicon A156V; assay: 2-Day HCV Replicon IC50 Assay, A156V; format: cell-based; conditions: for Fold Change: A156V, ratio of mutant IC50 to Wild type IC50 for the same inhibitor; for IC50: Hepatitis C virus, read-out: Avg. IC50 ± STDEV
Method: as §1, §2, §3, §4

[5] = system: HCV NS3 protease variant replicon V36M+R155K; assay: microbe, parasite or virus in culture; format: cell-based; conditions: for Fold Change: V36M-R155K, ratio of mutant IC50 to Wild type IC50 for the same inhibitor
Method: as §1, §2, §3, §4

[6] = system: HCV NS3 protease variant replicon V36A; assay: microbe, parasite or virus in culture; format: cell-based; conditions: for IC50: Hepatitis C virus; for Fold Change: V36A, ratio of mutant IC50 to Wild type IC50 for the same inhibitor
Method: as §1, §2, §3, §4

[7] = system: HCV NS3 protease variant replicon R155K; assay: microbe, parasite or virus in culture; format: cell-based; conditions: for IC50: Hepatitis C virus; for Fold Change: R155K, ratio of mutant IC50 to Wild type IC50 for the same inhibitor
Method: as §1, §2, §3, §4

[8] = system: HCV NS3 protease variant replicon T54A; assay: microbe, parasite or virus in culture; format: cell-based; conditions: for IC50: Hepatitis C virus; for Fold Change: T54A, ratio of mutant IC50 to Wild type IC50 for the same inhibitor
Method: as §1, §2, §3, §4

[9] = system: HCV NS3 protease variant replicon V36M; assay: microbe, parasite or virus in culture; format: cell-based; conditions: for IC50: Hepatitis C virus; for Fold Change: V36M, ratio of mutant IC50 to Wild type IC50 for the same inhibitor
Method: as §1, §2, §3, §4

[10] = system: HCV NS3 protease variant replicon A156V; conditions: A156V replicon versus wild-type (Lin et al., 2005); cited from earlier work
[11] = system: HCV NS3 protease variant replicon A156T; conditions: A156T replicon versus wild-type (Lin et al., 2005); cited from earlier work
[12] = system: HCV NS3 protease variant replicon R155M; assay: microbe, parasite or virus in culture; format: cell-based
Method: as §1, §2, §3, §4

[13] = system: HCV NS3 protease variant replicon R155T; assay: microbe, parasite or virus in culture; format: cell-based
Method: as §1, §2, §3, §4

[14] = system: HCV NS3 protease variant replicon V36A-R155T; assay: microbe, parasite or virus in culture; format: cell-based
Method: as §1, §2, §3, §4

[15] = system: HCV NS3 protease variant replicon V36M-R155T; assay: microbe, parasite or virus in culture; format: cell-based
Method: as §1, §2, §3, §4

[16] = system: HCV NS3 protease variant replicon V36A-R155K; assay: microbe, parasite or virus in culture; format: cell-based
Method: as §1, §2, §3, §4

[17] = Table 8, Wild Type replicon, read-out: Avg. IC50 ± STDEV
[18] = Hepatitis C virus, read-out: Avg. IC50

Structure (SMILES)	IC50 [1, 17] [µM]	Fold Change ([1]; Wild Type replicon)	IC50 [2] [µM]	Fold Change [3]	IC50 [3] [µM]	Fold Change [4]	IC50 [4] [µM]	Fold Change [5]	IC50 ([6]; read-out: Avg. IC50 ± STDEV) [µM]	Fold Change [6]	IC50 ([7]; read-out: Avg. IC50 ± STDEV) [µM]	Fold Change [7]	IC50 ([8]; read-out: Avg. IC50 ± STDEV) [µM]	Fold Change [8]	IC50 ([9]; read-out: Avg. IC50 ± STDEV) [µM]	Fold Change [9]	also measured
O=c1c(C2=NS(=O)(=O)c3ccccc3N2)c(O)c2ccccc2n1NC1CCC1 [Formula II]	0.347 ± 0.108	1.0	1.04	0.9	0.326 ± 0.003	0.8	0.264 ± 0.045	1.7	0.571 ± 0.093	1.6	0.45 ± 0.023	1.3	0.564 ± 0.111	1.6	0.36 ± 0.164	1.0	–
C[C@@]1(O)[C@H](O)[C@@H](CO)O[C@H]1n1ccc(N)nc1=O [Formula I]	1.34 ± 0.473	1.0	7.21	0.9	1.27 ± 0.185	1.0	1.31 ± 0.216	2.0	2.15 ± 0.874	1.6	2.37 ± 0.678	1.8	1.98 ± 0.388	1.5	1.59 ± 0.361	1.2	–
NC(=O)c1ncn([C@@H]2O[C@H](CO)[C@@H](O)[C@H]2O)n1 [Ribavirin, 1-beta-D-ribofuranosyl-1H-1,2,4-triazole-3-carboxamide, reference compound]	–	1.0	–	–	–	–	–	0.7	–	0.7	–	0.6	–	0.4	–	0.6	IC50 ([1]; Ribavirin, Wild Type (mADE) replicon, read-out: Avg. IC50): 57.8 ± 17.6 µM; sensitivity of replicon [10]: comparable to the wild-type; sensitivity of replicon [11]: comparable to the wild-type; IC50 [5, 18]: 40.6 ± 6.1 µM; IC50 [12, 18]: 38.9 ± 4.7 µM; Fold Change ([12]; R155M, ratio of mutant IC50 to Wild type IC50 for the same inhibitor): 0.7; IC50 ([6]; read-out: Avg. IC50): 43.1 ± 21.3 µM; IC50 ([7]; read-out: Avg. IC50): 37.2 ± 17 µM; IC50 [13, 18]: 32.4 ± 17.7 µM; Fold Change ([13]; R155T, ratio of mutant IC50 to Wild type IC50 for the same inhibitor): 0.6; IC50 ([8]; read-out: Avg. IC50): 21.7 ± 11.1 µM; IC50 [14, 18]: 41.7 ± 21.6 µM; Fold Change ([14]; V36A-R155T, ratio of mutant IC50 to Wild type IC50 for the same inhibitor): 0.7; IC50 ([9]; read-out: Avg. IC50): 32.9 ± 17.8 µM; IC50 [15, 18]: 36.4 ± 1.3 µM; Fold Change ([15]; V36M-R155T, ratio of mutant IC50 to Wild type IC50 for the same inhibitor): 0.6; IC50 [16, 18]: 35.8 ± 2.2 µM; Fold Change ([16]; V36A-R155K, ratio of mutant IC50 to Wild type IC50 for the same inhibitor): 0.6
